One assay has as its target T1, TRPML3 (Homo sapiens, UniProt Q8TDD5).
T1 construct: expressed in transfected cells
T1 sequence (Q8TDD5 1-553): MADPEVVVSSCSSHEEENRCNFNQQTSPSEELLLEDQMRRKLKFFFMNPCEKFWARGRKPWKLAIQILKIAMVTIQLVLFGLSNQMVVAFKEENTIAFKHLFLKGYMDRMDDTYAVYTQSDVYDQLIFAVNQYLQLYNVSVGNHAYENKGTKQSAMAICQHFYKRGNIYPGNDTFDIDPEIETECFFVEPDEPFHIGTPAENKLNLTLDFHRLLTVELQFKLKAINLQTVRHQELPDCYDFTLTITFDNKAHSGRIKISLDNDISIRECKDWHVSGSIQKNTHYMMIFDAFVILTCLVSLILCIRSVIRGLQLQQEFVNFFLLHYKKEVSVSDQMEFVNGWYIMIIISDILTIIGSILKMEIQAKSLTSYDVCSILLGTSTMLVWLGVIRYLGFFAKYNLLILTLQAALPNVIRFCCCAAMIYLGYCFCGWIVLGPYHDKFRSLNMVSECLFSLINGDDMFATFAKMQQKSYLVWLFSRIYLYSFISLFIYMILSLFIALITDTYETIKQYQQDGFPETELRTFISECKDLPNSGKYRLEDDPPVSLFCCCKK
Briefly: Fluorescent TRPML3 assay (as for TRPML1). It is filed as cell-based. Here is the method: (§1) HEK-293 Trex cells were stably transfected with a construct consisting of the human coding sequence for TRPML1 cloned into the tet-inducible plasmid pCDNA5 T/O. Mutations were introduced into the TRPML1 sequence to facilitate expression on the cell surface (Silvia Vergarajauregui, Rosa Puertollano Traffic. 2006 March; 7 (3): 337-353). Briefly, the cells are cultured in 150 mm round tissue culture dishes containing 20 mL of media. The day before the assay the cells are rinsed with DPBS —Ca—Mg and then treated briefly with Trypsin-EDTA. The Trypsin-EDTA is diluted with growth media, and cells are counted. 38×10^6 cells are re-plated into 150 mm round tissue culture dishes in media containing 0.5 ug/mL doxycycline to induce expression of hTRPML1.
(§2) The day of the experiment cells are lifted from the plates as above and collected by centrifugation. The cells are then suspended in dye loading buffer consisting of Ringer's solution supplemented with 0.1% Pluronic Acid and 1 micromolar Fluo4-AM dye. Cells are loaded for ˜60 minutes in the dark with occasional mixing. The cells are collected by centrifugation, the loading media aspirated, and the cells resuspended in 25 mL Ringer's solution and incubated ˜60 minutes in the dark. The cells are again collected by centrifugation, rinsed in Ringer's Solution and resuspended to 0.2×10^6 cells/mL in modified Ringer's solution containing 10 mM calcium.
(§3) Compounds are dissolved to a concentration of 10 millimolar with DMSO. Compound plates are created by dispensing compounds into 384 well black wall clear bottom plates (Greiner 781091). Positive and negative controls are included on each plate. Typically, different amounts of each compound are tested ranging from 100 nanoMoles (20 micromolar final concentration) decreasing in half-log steps to 31 picoMoles (6 nanomolar final concentration). Each concentration is typically tested in triplicate.
(§4) 50 microliters of dye-loaded cells are dispensed into each well of the compound assay plate created above. The fluorescence in each well is then determined with an excitation wavelength of 480 nm and an emission wavelength of 540 nm using either a Molecular Devices SpectraMax multimode plate reader or a Hamamatsu FDSS/uCell plate imager.
(§5) The resulting fluorescence for each well is exported as an ascii file and loaded into our LIMS for analysis. The percent activity of each compound at each concentration is determined by comparison to the positive and negative control wells included in each plate.
Assays for TRPML2 and TRPML3 were performed as above for TRPML1, by substituting the appropriate TRPML2 or TRPML3 subtype for the TRPML1.
(§6) EC50 values were calculated using a non-linear regression of Prism. In the table, “A” indicates an EC50 of less than 100 nM, “B” indicates an EC50 range from 100 nM to 500 nM; “C” indicates an EC50 range from 500 nM to 2 μM; and “D” indicates an EC50 greater than 2 μM.

The target in the next assay is human TRPML1 (Homo sapiens, UniProt Q9GZU1). The experiment in a line: Fluorescent TRPML1 assay (Fluo4-AM calcium fluorescence, HEK-293 Trex cells). It is filed as cell-based. The protocol:
as §1, §2, §3, §4, §5, §6

human TRPML1, sequence (Q9GZU1 whole entry L15A/L16A/L577A/L578A, form open): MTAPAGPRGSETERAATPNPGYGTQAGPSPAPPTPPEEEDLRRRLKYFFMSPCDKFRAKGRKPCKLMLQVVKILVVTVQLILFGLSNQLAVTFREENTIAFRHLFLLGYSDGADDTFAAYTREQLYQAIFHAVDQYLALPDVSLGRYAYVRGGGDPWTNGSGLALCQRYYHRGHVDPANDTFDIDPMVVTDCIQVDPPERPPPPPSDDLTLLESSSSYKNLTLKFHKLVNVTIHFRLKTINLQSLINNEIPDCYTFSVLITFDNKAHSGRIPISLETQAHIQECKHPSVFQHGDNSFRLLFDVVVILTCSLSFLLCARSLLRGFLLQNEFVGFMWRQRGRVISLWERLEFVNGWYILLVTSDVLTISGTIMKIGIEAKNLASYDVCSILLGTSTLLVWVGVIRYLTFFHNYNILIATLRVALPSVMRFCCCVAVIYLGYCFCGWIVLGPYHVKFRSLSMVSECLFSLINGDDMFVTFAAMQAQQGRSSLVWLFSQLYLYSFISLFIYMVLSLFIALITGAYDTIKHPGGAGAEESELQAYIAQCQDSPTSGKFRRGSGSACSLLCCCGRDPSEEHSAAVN

With `C[C@@H]1CN(c2ncnc3c2c(C(F)(F)F)cn3-c2cc(F)cc(F)c2)[C@@H](C)CN1C(=O)C(C)(C)C` [Compound 225, 1-((2R,5S)-4-(7-(3,5-difluorophenyl)-5-(trifluoromethyl)-7H-pyrrolo[2,3-d]pyrimidin-4-yl)-2,5-dimethylpiperazin-1-yl)-2,2-dimethylpropan-1-one], the EC50 – broadly, the concentration giving half of the maximal effect – was 100 to 500 nM on TRPML3 (Table 3, compounds 201-283) and less than 100 nM at human TRPML1 (Table 3, compounds 201-283).

Turning to `Cc1cn(-c2cc(F)ccn2)c2ncnc(N3C[C@@H](C)N(C(=O)C(C)(C)C)C[C@@H]3C)c12` [Compound 244, 1-((2R,5S)-4-(7-(4-fluoropyridin-2-yl)-5-methyl-7H-pyrrolo[2,3-d]pyrimidin-4-yl)-2,5-dimethylpiperazin-1-yl)-2,2-dimethylpropan-1-one], the EC50 at TRPML3 (Table 3, compounds 201-283) was 500 to 2000 nM; on human TRPML1 (Table 3, compounds 201-283) it was less than 100 nM.

As for `CCN(CC)c1cn(-c2cc(C#N)ccn2)c2ncnc(N3CCN(C(=O)C(C)C)C[C@@H]3C)c12` [Compound 151, (S)-2-(5-(diethylamino)-4-(4-isobutyryl-2-methylpiperazin-1-yl)-7H-pyrrolo[2,3-d]pyrimidin-7-yl)isonicotinonitrile], the concentration giving a half-maximal response (EC50) on TRPML3 (Table 3, compounds 101-177) was 100 to 500 nM; on human TRPML1 (Table 3, compounds 101-177) it was 100 to 500 nM.

Consider `C[C@@H]1CN(c2ncnc3c2c(-c2ccccc2F)cn3-c2cc(F)ccn2)[C@@H](C)CN1C(=O)C(C)(C)O` [Compound 169, 1-((2R,5S)-4-(5-(2-fluorophenyl)-7-(4-fluoropyridin-2-yl)-7H-pyrrolo[2,3-d]pyrimidin-4-yl)-2,5-dimethylpiperazin-1-yl)-2-hydroxy-2-methylpropan-1-one], for which the EC50 on TRPML3 (Table 3, compounds 101-177) was 100 to 500 nM; at human TRPML1 (Table 3, compounds 101-177), less than 100 nM.

Take `C[C@H]1CN(C(=O)C(C)(C)O)CCN1c1ncnc2c1c(-c1ccccc1F)cn2-c1cc(C#N)ccn1` [Compound 159, (S)-2-(5-(2-fluorophenyl)-4-(4-(2-hydroxy-2-methylpropanoyl)-2-methylpiperazin-1-yl)-7H-pyrrolo[2,3-d]pyrimidin-7-yl)isonicotinonitrile]: the EC50 on TRPML3 (Table 3, compounds 101-177) is 100 to 500 nM; at human TRPML1 (Table 3, compounds 101-177), less than 100 nM.

For the compound `C[C@@H]1CN(c2ncnc3c2c(C(F)(F)F)cn3-c2cccc(C#N)c2)[C@@H](C)CN1C(=O)C(C)(C)C` [Compound 222, 3-(4-((2S,5R)-2,5-dimethyl-4-pivaloylpiperazin-1-yl)-5-(trifluoromethyl)-7H-pyrrolo[2,3-d]pyrimidin-7-yl)benzonitrile], the 50% effective concentration (EC50) on TRPML3 (Table 3, compounds 201-283) was 100 to 500 nM; on human TRPML1 (Table 3, compounds 201-283), less than 100 nM.

Take `Cc1cn(-c2cc(C(F)(F)F)ccn2)c2ncnc(N3C[C@@H](C)N(C(=O)C(C)(C)C)C[C@@H]3C)c12` [Compound 245, 1-((2R,5S)-2,5-dimethyl-4-(5-methyl-7-(4-(trifluoromethyl)pyridin-2-yl)-7H-pyrrolo[2,3-d]pyrimidin-4-yl)piperazin-1-yl)-2,2-dimethylpropan-1-one]: the EC50 was 100 to 500 nM on TRPML3 (Table 3, compounds 201-283) and less than 100 nM at human TRPML1 (Table 3, compounds 201-283).

Consider `C[C@H]1CN(C(=O)C(C)(C)C)CCN1c1ncnc2c1c(N1CCC1)cn2-c1cccc(F)c1` [Compound 216, (S)-1-(4-(5-(azetidin-1-yl)-7-(3-fluorophenyl)-7H-pyrrolo[2,3-d]pyrimidin-4-yl)-3-methylpiperazin-1-yl)-2,2-dimethylpropan-1-one], for which the EC50 at TRPML3 (Table 3, compounds 201-283) is more than 2000 nM; on human TRPML1 (Table 3, compounds 201-283), less than 100 nM.

For the compound `Cc1nccnc1-c1cn(-c2cccc(Cl)c2)c2ncnc(N3C[C@@H](C)N(C(=O)C(C)C)C[C@@H]3C)c12` [Compound 175, 1-((2R,5S)-4-(7-(3-chlorophenyl)-5-(3-methylpyrazin-2-yl)-7H-pyrrolo[2,3-d]pyrimidin-4-yl)-2,5-dimethylpiperazin-1-yl)-2-methylpropan-1-one], the EC50 on TRPML3 (Table 3, compounds 101-177) is more than 2000 nM; at human TRPML1 (Table 3, compounds 101-177), 500 to 2000 nM.

For the compound `CC(C)C(=O)N1C[C@H](C)N(c2ncnc3c2c(N2CCC2)cn3-c2cccc(Cl)c2)C[C@H]1C` [Compound 221, 1-((2R,5S)-4-(5-(azetidin-1-yl)-7-(3-chlorophenyl)-7H-pyrrolo[2,3-d]pyrimidin-4-yl)-2,5-dimethylpiperazin-1-yl)-2-methylpropan-1-one], the EC50 was 500 to 2000 nM on TRPML3 (Table 3, compounds 201-283) and less than 100 nM at human TRPML1 (Table 3, compounds 201-283).

Take `CC(C)C(=O)N1CCN(c2ncnc3c2c(-c2ccccn2)cn3-c2cc(C#N)ccn2)C[C@H]1C` [Compound 132, (R)-2-(4-(4-isobutyryl-3-methylpiperazin-1-yl)-5-(pyridin-2-yl)-7H-pyrrolo[2,3-d]pyrimidin-7-yl)isonicotinonitrile]: the EC50 at TRPML3 (Table 3, compounds 101-177) is 500 to 2000 nM; at human TRPML1 (Table 3, compounds 101-177), 500 to 2000 nM.

`CC(C)C(=O)N1CCN(c2ncnc3c2c(-c2ccccc2F)cn3-c2cc(C#N)n(C)c2)[C@@H](C)C1` [Compound 157, (S)-4-(5-(2-fluorophenyl)-4-(4-isobutyryl-2-methylpiperazin-1-yl)-7H-pyrrolo[2,3-d]pyrimidin-7-yl)-1-methyl-1H-pyrrole-2-carbonitrile]: the concentration for a half-maximal effect (EC50) lay within 500 to 2000 nM at TRPML3 (Table 3, compounds 101-177) and 100 to 500 nM at human TRPML1 (Table 3, compounds 101-177).

Take `CC(C)C(=O)N1CCN(c2ncnc3c2c(-c2ccccc2F)cn3-c2cc(C#N)ccn2)CC12CC2` [Compound 145, 2-(5-(2-fluorophenyl)-4-(4-isobutyryl-4,7-diazaspiro[2.5]octan-7-yl)-7H-pyrrolo[2,3-d]pyrimidin-7-yl)isonicotinonitrile]: the EC50 was less than 100 nM at TRPML3 (Table 3, compounds 101-177) and 100 to 500 nM at human TRPML1 (Table 3, compounds 101-177).

As for `C[C@@H]1CN(c2ncnc3c2c(C2CCC2)cn3-c2cccc(F)c2)[C@@H](C)CN1C(=O)C1(F)CC1` [Compound 249, ((2R,5S)-4-(5-cyclobutyl-7-(3-fluorophenyl)-7H-pyrrolo[2,3-d]pyrimidin-4-yl)-2,5-dimethylpiperazin-1-yl)(1-fluorocyclopropyl)methanone], the EC50 on TRPML3 (Table 3, compounds 201-283) is 500 to 2000 nM; at human TRPML1 (Table 3, compounds 201-283), 100 to 500 nM.

For the compound `Cc1nccnc1-c1cn(-c2cccc(Cl)c2)c2ncnc(N3C[C@@H](C)N(C(=O)CC(C)C)C[C@@H]3C)c12` [Compound 176, 1-((2R,5S)-4-(7-(3-chlorophenyl)-5-(3-methylpyrazin-2-yl)-7H-pyrrolo[2,3-d]pyrimidin-4-yl)-2,5-dimethylpiperazin-1-yl)-3-methylbutan-1-one], the EC50 at TRPML3 (Table 3, compounds 101-177) was more than 2000 nM; at human TRPML1 (Table 3, compounds 101-177) it was 500 to 2000 nM.

For `CC(C)C(=O)N1CCN(c2ncnc3c2c(-c2ccccc2F)cn3-c2cc(C#N)ncn2)[C@@H](C)C1` [Compound 152, (S)-6-(5-(2-fluorophenyl)-4-(4-isobutyryl-2-methylpiperazin-1-yl)-7H-pyrrolo[2,3-d]pyrimidin-7-yl)pyrimidine-4-carbonitrile], the EC50 on TRPML3 (Table 3, compounds 101-177) is less than 100 nM; on human TRPML1 (Table 3, compounds 101-177), 100 to 500 nM.

Take `CCN(CC)c1cn(-c2cccc(Cl)c2)c2ncnc(N3CCN(C(=O)C(C)C)C[C@@H]3C)c12` [Compound 147, (S)-1-(4-(7-(3-chlorophenyl)-5-(diethylamino)-7H-pyrrolo[2,3-d]pyrimidin-4-yl)-3-methylpiperazin-1-yl)-2-methylpropan-1-one]: the EC50 at TRPML3 (Table 3, compounds 101-177) was 500 to 2000 nM; at human TRPML1 (Table 3, compounds 101-177), 500 to 2000 nM.

As for `C[C@H]1CN(C(=O)C(C)(C)O)CCN1c1ncnc2c1c(C1CC1)cn2-c1cc(C#N)ccn1` [Compound 160, (S)-2-(5-cyclopropyl-4-(4-(2-hydroxy-2-methylpropanoyl)-2-methylpiperazin-1-yl)-7H-pyrrolo[2,3-d]pyrimidin-7-yl)isonicotinonitrile], the concentration for a half-maximal effect (EC50) was more than 2000 nM at TRPML3 (Table 3, compounds 101-177) and 100 to 500 nM on human TRPML1 (Table 3, compounds 101-177).
